The values below come from patent US9873883B2, “Glyphosate resistant plants and associated methods” (Dow AgroSciences LLC, priority 2012, dated 2018).

pIC50: −log10 of the molar value. A value given as a limit tells only on which side of the number the result lay.

Broadly, the pIC50 is the IC50 on a negative log10 scale, so that one unit is a factor of ten. A high value points to a small IC50.

Test [1] deals with Arabidopsis transformed with TraP12 v2::dgt-14 (pDAB105528). Nature of the test: Postemergence glyphosate tolerance, visual injury. The test is classed as in vivo, Arabidopsis thaliana. The settings on record: 2 weeks after application.
Test [2] addresses bacterial EPSP synthase DGT-11 v6, native (GENBANK YP_989551.1), SEQ ID NO:5 (Bartonella bacilliformis, UniProt A0ABN0IFN8). Nature of the test: In vitro kinetic assay (inorganic phosphate production, malachite green). As for the experimental part: The synthesized genes were cloned into the pET28 expression vector.
Recombinant DGT proteins were overexpressed in Rosetta2™ (DE3) cells (Novagen, Madison, Wis.) from the constructs described above. A single colony was used to inoculate 50 mL starter cultures of LB containing chloramphenicol (25 μg/mL) and kanamycin (50 μg/mL) which were cultivated overnight at 37° C. The overnight cultures were used to inoculate 1 L of LB containing chloramphenicol (25 μg/mL) and kanamycin (50 μg/mL). The cultures were grown at 37° C. to an O.D.600=0.6 then placed in an ice water bath for 10 minutes. Expression of the target proteins was achieved by addition of IPTG to a final concentration of 500 μM. Induction was allowed to proceed overnight at 20° C. followed by harvesting via centrifugation at 8,000 rpm for 20 minutes. The cell pellets were stored at −80° C. until required for purification. All purification steps were carried out at 4° C.

In the next test the test system is dgt-14 soybean plants. Nature of the test: Glyphosate tolerance of dgt-14 soybean. The test is classed as in vivo, Glycine max. The settings on record: sprayed. As for the experimental part:
Terminal leaflets of selected plantlets are treated topically (leaf paint technique) with a herbicide to screen for putative transformants. The screened plantlets are transferred to the greenhouse, allowed to acclimate and then leaf-painted with a herbicide to reconfirm tolerance. These putative transformed T0 plants are sampled and molecular analyses is used to confirm the presence of the selectable marker and the dgt-14 transgene. Several events are identified as containing the transgenes. These T0 plants are advanced for further analysis and allowed to self fertilize in the greenhouse to give rise to T1 seed. Soybean plants containing the dgt-14 transgene are obtained. The dgt-14 soybean plants are sprayed with varying concentrations of glyphosate and shown to provide tolerance to glyphosate at concentrations up to 3360 g ae/ha.

Test [3] has as its target T1, Mariprofundus ferrooxydans EPSP synthase DGT-14 v1, native wild type (GENBANK ZP_01452683; SEQ ID NO:17) (Mariprofundus ferrooxydans, UniProt Q0EYT4).
T1 construct: pET28, N-terminal 6xHis and thrombin site, E. coli, IMAC purified
In words: In vitro kinetic assay (inorganic phosphate production, malachite green). It counts as biochemical. Conditions: IC50 (glyphosate). Here is the method: One enzyme that was identified was DGT-14 (GENBANK ACC NO: ZP_01452683) from Manprofundus ferrooxydans. […] One of these enzymes, DGT-11 (SEQ ID NO:5), contains a natural alanine at an analogous position within the EPSP synthase enzyme as that of the G96A mutation which was introduced into the E. coli version of the enzyme.
Site directed mutagenesis was carried out on the synthetic dgt-14 v6 to confirm the role of the alanine that was introduced at the glycine residue of amino acid residue 101. THE QUICK CHANGE II® kit from Stratagene (Santa Clara, Calif.) was used to perform the mutagenesis. The following primers were designed to make the amino acid switch. […]
Cell pellets from 1 L cultures were resuspended in 20-30 mL Buffer A (50 mM HEPES pH 7.5, 150 mM KCl, 2 mM DTT, 1 mM EDTA, 20 mM imidazole, and 5% glycerol). […] Samples were typically diluted 1:50 and the UV-visible spectrum was recorded from 240-700 nm on a Cary50 Bio UV-visible spectrophotometer. A theoretical extinction coefficient was then used to calculate the protein concentration based on the absorbance at 280 nm (ExPASy, Geneva, Switzerland).
The enzyme activities of wild-type (WT) and mutant DGTs were measured by inorganic phosphate (Pi) production in a modified procedure described by Lanzetta et al., (1979). […]

For another test, the system named is T0 dgt-14 corn plants. In words: Postemergence herbicide tolerance in dgt-14 transformed T0 corn. Conditions: Durango DMA. It counts as in vivo, Zea mays. Here is the method:
T0 events are allowed to acclimate in the greenhouse and are grown until two to four new, normal looking leaves emerge from the whorl (i.e., plants that transition from tissue culture to greenhouse growing conditions). Plants are grown at 27° C. under 16 hour light:8 hour dark conditions in the greenhouse. The plants are then treated with commercial formulations of Durango DMA™ (containing the herbicide glyphosate) with the addition of 2% w/v ammonium-sulfate. Herbicide applications are made with a track sprayer at a spray volume of 187 L/ha, 50-cm spray height. T0 plants are sprayed with a range of glyphosate from 280-4480 g ae/ha glyphosate, which is capable of significant injury to untransformed corn lines. A lethal dose is defined as the rate that causes >95% injury to the B104 inbred.

In test [4] the test system is Arabidopsis transformed with TraP13 v2::dgt-14 (pDAB105529). Nature of the test: Postemergence glyphosate tolerance, visual injury. The test is classed as in vivo, Arabidopsis thaliana. Conditions: 2 weeks after application.

In the case of `O=C(O)CNCP(=O)(O)O` [glyphosate, N-(phosphonomethyl)glycine], the “Visual % injury (Ave)” value in test [1] (T2, 840 g ae/ha) was 2.5%; in test [1] (T3, 840 g ae/ha), 0.0%; in test [4] (T2, 840 g ae/ha), 1.3%; in test [4] (T3, 840 g ae/ha) it was 0.0%. Besides, the pIC50 is 2.00 in test [2], 3.36 in test [3] (at 60 μM PEP) and less than 1.70 in test [3] (at 1 mM PEP). Further, the “tolerance to glyphosate at concentrations up to” value in the test on dgt-14 soybean plants is “up to 3360 g ae/ha”. Also, the “tolerance to glyphosate achieved at rates up to” value with T0 dgt-14 corn plants was “up to 4480 g ae/ha”.
